Source: patent US10814021B2, “Paramagnetic boron-doped graphene quantum dots and their application for safe magnetic resonance imaging” (priority 2017, dated 2020)
“Also recorded” adds a separate entry of the source.

Columns and labels:
C57BL/6 wild-type mice [1] = assay: In vivo abdominal T1-weighted MR imaging, SL-BGQDs vs Gd-DTPA
Excerpt: T1-weighted MR images of the cross-sectional views of mice centered within the abdomen were acquired before and after contrast agent injection.
(§1) Mice were anesthetized with isoflurane (Piramal Healthcare) and secured in a coil-integrated respiratory monitoring system (SA Instruments; MR-compatible small animal monitoring and gating system) with nose-cone for oxygen/anesthetic, ear-bar head holder, circulating temperature control bath, and residual gas extraction. Abdominal scans were acquired using rapid acquisition with refocused echoes (RARE) T1-weighted (TR/TE=691/5.5 ms, in-plane resolution 93×62 μm^2, matrix 256×284) sequences and slices placed in the transverse plane with 0.5 mm slice thickness and 0.75 mm interslice gaps allowing for coverage from the liver to the pelvic floor. Cranial scans were acquired over the entire head with a 3-dimensional, T1-weighted fast low angle shot (FLASH) scan sequence (TR/TE=16.2/2.7 ms, resolution 106×108×152 μm^3, matrix 284×186×132). Images from this cranial scan sequence were processed using a maximum intensity projection with a 3 mm slab thickness.

[2] = comparison values quoted in text; field not stated; cited from earlier work
[3] = In vitro MR imaging (T1/T2 relaxivity) of SL-BGQDs and Gd-DTPA in PBS at 14 T; type: physicochemical; details: SL-BGQDs per boron molar concentration
Description: To evaluate the applicability of using SL-BGQDs as contrast agents for MR imaging, quantitative T1 and T1-weighted MR imaging scan sequences were acquired of SL-BGQD samples in PBS at magnetic field strength of 14T. […] 1/T1 was then plotted against the boron molar concentration in SL-BGQDs (FIG. 13D).
T1- and T2-weighted imaging and quantitative T1 and T2 MR imaging scan sequences were used to investigate the contrast enhancing capabilities of SL-BGQDs. MR imaging was conducted on a Bruker Avance III 600 MHz, 14 T wide bore spectrometer. […] The vials were fixed in place inside a water reservoir; the water served as a homogeneous background signal to minimize magnetic susceptibility variations near samples. The secured vials were placed in a 25 mm single-channel ^1H radiofrequency receiving coil (PB Micro 2.5). […] Quantitative T2 values were measured using a multi-spin multi-echo (MSME) pulse sequence with TR=2500 ms, TE=6.7+6n ms (n=0-16), and 78×156 μm^2 in-plane resolution with 0.5 mm slice thickness for 14 slices. T1-weighted images were acquired with a RARE pulse sequence with TE=5.49 ms, TR=531 ms, 78×52 μm^2 in-plane resolution and 0.5 mm slice thickness for 10 slices. […] T1 values were determined within a circular, 100-voxel region of interest.

C57BL/6 wild-type mice [4] = assay: In vivo cranial T1-weighted MR imaging (neurovasculature), SL-BGQDs vs Gd-DTPA; details: 10 min after i.v. 200 μL, 5 mg mL^−1
Excerpt: as §1

In the case of `O=C([O-])CN(CCN(CC(=O)[O-])CC(=O)O)CCN(CC(=O)[O-])CC(=O)O.[Gd+3]` [Gd-DTPA, gadolinium diethylene penta-acetic acid], the “T1-weighted contrast enhancement in any organ at 60 min post-injection” value (C57BL/6 wild-type mice [1]; 60 min post-injection, i.v. 200 μL, 1 mg mL^−1) is reported as “completely nullified; also recorded: no T1-weighted signal increase was detected”, the “time of peak contrast enhancement post-injection” value (C57BL/6 wild-type mice [1]; i.v. 200 μL, 1 mg mL^−1) is reported as no more than 10 min and the “signal enhancement in renal cortex, renal pelvis and gall bladder, post- vs pre-injection” value (C57BL/6 wild-type mice [1]; i.v. 200 μL, 1 mg mL^−1, 14 T) is reported as “substantial signal enhancement”. For the same compound, the imaging time (C57BL/6 wild-type mice [1]; summary statement) was “about 10 min”, the “r1 relaxivity of comparison T1 CAs” value [2] was 5.39 mM⁻¹ s⁻¹ and the “longitudinal relaxivity, r1” value [3] was 4.3 mM⁻¹ s⁻¹. The “contrast of cranial vasculature, post- vs pre-injection” value (C57BL/6 wild-type mice [4]) was “no apparent change in contrast”.
